Structures are written as SMILES. Read-outs that look alike come from different tables or passages of the source. Marks after values point to notes of the source that are not given here. Where only a bound is given, the exact number is not on record here.

Here are results for seven compounds from patent EP0311632B1, “SURFACE ACTIVE LACTAMS” (priority 1986, dated 1988).

Series [1] is described as follows: Titration of 10% dispersions with HCl to a clear solution (protonation). The series is classed as physicochemical. The note with it: clear solution after HCl titration. An excerpt:
Ten percent dispersions of the C₈ and C₁₀ pyrrolidones were titrated to a clear solution using HCl.
To obtain a rough figure for the protonation equilibrium constant, the equilibrium [octyl pyrrolidone] was taken at 5 x 10⁻³m.

Series [2] is described as follows: pH of product, 10% in 50/50 isopropyl alcohol-water. The series is classed as physicochemical. The source says: Into a stainless steel autoclave was introduced n-octylamine (2342 g) and butyrolactone (1704 g) in a mole ratio of about 1:1.1.
Series [3] can be described thus: Viscosity (Brookfield Viscometer, LVT Model). The series is classed as physicochemical. The method, then: The viscosities in cps of the following surfactants at various concentration in distilled water were measured at about 25°C. using a Brookfield Viscometer (LVT Model).
The above viscosity of alkyl pyrrolidones and their aqueous solutions were obtained usinq a #2 spindle at a speed of 30 rpm, and a #2 spindle at a speed of 60 rpm respectively.

A short description of series [4]: Surface tension of aqueous solutions (Fisher Surface Tensiomat, ring tensiometer). The class given is physicochemical. The note with it: 25°C. The method, then:
Surface tension measurements in triplicate were made for each of the N-alkylpyrrolidone species listed below in Table 1, using a Fisher Surface Tensiomat (Model #21, Der Nouy Ring Tensionometer). Each experiment was carried out as follows.
Distilled water solutions at concentrations noted in Table 1 were prepared for each of the following surfactants in 100 ml glass flasks. The solutions were stirred for about 15 minutes until homogeneous solutions were obtained. The surface tensions of these solutions were then measured.

Series [5] is described as follows: Cloud point of 10% aqueous solutions. The note with it: 10% aqueous solution. The class given is physicochemical. An excerpt: The higher the cloud point, the more soluble, i.e. hydrated, the surfactant.
A short description of series [6]: Solubility of N-alkyl pyrrolidones, 10% by weight in various liquids. The class given is physicochemical. On the set-up: key to 10% PRODUCT SOLUBILITY: I: insoluble; PS: partially soluble (cloudy translucent); S: soluble, clear; *: Soluble with slight haze; **: Very slight precipitation. Particulars: for 10% PRODUCT SOLUBILITY: 25°C ± 1°C; for solubility in water: room temperature, 10% concentration, in words. The method, then:
Separate 10% by weight solutions of N-alkyl-2-pyrrolidone in the following liquids were made up in 50 ml glass beakers and the solubilities at about 25°C. were noted and reported in following Table 9.

A short description of series [7]: Surface activity parameters calculated from surface tension measurements (Gibbs adsorption equation). Particulars: for am: area of the molecule at the interface; for pC-20: negative logarithm of surfactant concentration required to lower surface tension by 20 dynes/cm; for CMC: critical micelle concentration, calculated from surface tension data. The series is classed as physicochemical. The method, then:
The critical micelle concentration (CMC), the surface concentration at the liquid-air interface ( ? ), the area of the test molecule at the interface (am) and the effectiveness of adsorption at the interface (pC-20) were determined on the above surface tension data reported in Example XXI, Table 1.
More specifically, the CMC of the N-(n alkyl) pyrrolidones tested show a minimum (4.7 x 10⁻⁵) at the C₁₂ chain length. Using the empirical equation for n-lauryl (C₁₂) alcohol ethoxylate, log CCMC (= A)^1 (+ B)^1 n [formula] where A¹ = 4.4, B¹ = 0.046, and n = number of ethylene oxide at 23°C., the pyrrolidone ring would be expected to behave as 2 ethylene oxide units. […] The hydrophilic-lipophilic balance (HLB) of N-n-dodecyl pyrrolidone, based on the assumption that the pyrrolidone ring simulates 2-6 ethylene oxide units is 6.5 - 11 using the equation % ethylene oxide/5 - HLB.
The surface concentration ? , in moles per cm indicates the maximum surface concentration of surfactant, i.e. at equilibrium above the CMC, and is obtained by an estimation of a constant d γ /dc* from the surface tension vs. concentration. […] The mono disperse nature of the hydrophobe and hydrophile is believed to contribute to high surface concentrations by maximizing enthropy of packing. * d γ/dc = the change in surface tension with respect to the change in surfactant concentration.

For series [8] the following is noted: value starred: literature value; cited from earlier work.
A short description of series [9]: Density, heat of vaporization and solubility parameter. The series is classed as physicochemical.
[10] abbreviates: 100%, about 25°C., #2 spindle 30 rpm.
Setting [11] is: product as such, stated in description and preparation examples.
Where [12] appears, read: 0.001% solution in distilled water.
[13] abbreviates: 0.01% solution in distilled water.
The mark [14] stands for this setting: 0.1% solution in distilled water.
[15] abbreviates: 2% in distilled water, about 25°C., #2 spindle 60 rpm.
The mark [16] stands for this setting: 4% in distilled water, about 25°C., #2 spindle 60 rpm.
The mark [17] stands for this setting: 6% in distilled water, about 25°C., #2 spindle 60 rpm.
The mark [18] stands for this setting: 8% in distilled water, about 25°C., #2 spindle 60 rpm.
Setting [19] is: 10% in distilled water, about 25°C., #2 spindle 60 rpm.
[20] abbreviates: 0.0001% solution in distilled water.

For the compound `CCCCCCCCN1CCCC1=O` [N-octyl-2-pyrrolidone], the “Solution pH” value in [1] is reported as 0.22. The pH in [2] is listed as 6.5. Besides, the VISCOSITY is 8.0 CPS in [3] (setting [10]) and 8 cps in series [3] (setting [11]). In addition, the “Surface Tension of Aqueous Solutions” value in series [4] (setting [12]) was 68.4 dynes/cm; in series [4] (setting [13]) it was 54.25 dynes/cm; in series [4] (setting [14]), 30.4 dynes/cm. Also, in series [5], the “Cloud Point” value was < 0 °C. For the same compound, the “10% PRODUCT SOLUBILITY” value in series [6] (Acetone) is reported as “S”; in [6] (Ethanol) it was “S”; in [6] (Heptane) it was “S”; in [6] (Paraffin Oil) it was “S”; in series [6] (Perchloroethylene), “S”; in series [6] (Stoddard Solvent), “S**”. Further, the “10% PRODUCT SOLUBILITY” value is recorded as “I” in series [6] (Water) and “S” in series [6] (Xylene). Besides, in [6], the solubility in water result is on record as “insoluble”. In addition, the am in [7] is recorded as 39.5 (Å)^2. Further, the pC-20 in series [7] is reported as 3.20.

Take `O=C1CCCN1C1CCCCC1` [N-cyclohexyl pyrrolidone, reference compound]: the “Cloud Point” value in series [5] turned out to be 55 °C.

`CCCCCCCCCCCC[N+](C)(C)[O-]` [lauryl dimethyl amine oxide, reference compound]: the CMC in [8] is 2.1 x 10^-3* ml^-1. In series [7], the am is 59.3 (Å)^2 and the pC-20 is on record as 5.23.

Turning to `CCCCCCCCCCN1CCCC1=O` [N-decyl-2-pyrrolidone], in series [1], the “Solution pH” value was <0.1. The compound further had a pH in series [2] of 5.4. Moreover, the VISCOSITY in series [3] (setting [10]) was 12.0 CPS; in series [3] (setting [11]), 12 cps. The “Surface Tension of Aqueous Solutions” value in [4] (setting [12]) was 51.0 dynes/cm; in [4] (setting [13]), 27.8 dynes/cm; in [4] (setting [14]) it was 27.5 dynes/cm; in series [4] (1.0% solution in distilled water) it was 27.6 dynes/cm. For the same compound, in series [5], the “Cloud Point” value was 19 °C. Besides, the “10% PRODUCT SOLUBILITY” value in series [6] (Acetone), in [6] (Ethanol), in series [6] (Heptane), in series [6] (Paraffin Oil), in series [6] (Perchloroethylene) and in series [6] (Stoddard Solvent) was “S” in each case. Moreover, the “10% PRODUCT SOLUBILITY” value in series [6] (Water) is listed as “PS*”; in [6] (Xylene) it was “S”. The solubility in water entry in series [6] is “slightly soluble”. Besides, in series [7], the am is listed as 36.1 (Å)^2. In addition, the CMC in series [7] is 440 µM. Besides, the pC-20 in series [7] is given as 4.51.

As for `CCCCCCCCCCCCCCN1CCCC1=O` [N-tetradecyl-2-pyrrolidone], the pH in series [2] was 5.9. The VISCOSITY in [3] (setting [15]) turned out to be 24.5 CPS; in [3] (setting [16]), 66.0 CPS; in series [3] (setting [17]) it was 96.0 CPS; in series [3] (setting [18]), 100.0 CPS; in series [3] (setting [19]), 145.0 CPS; in series [3] (setting [10]), 20.0 CPS. Further, the VISCOSITY in series [3] (setting [11]) is 2 cps. The “Surface Tension of Aqueous Solutions” value in series [4] (setting [20]) is listed as 47.5 dynes/cm; in series [4] (setting [12]), 30.4 dynes/cm; in [4] (setting [13]), 26.5 dynes/cm; in series [4] (setting [14]) it was 26.4 dynes/cm. For the same compound, the “Cloud Point” value in series [5] is 33 °C; in series [5] (listed as tetradecyl), 33 °C; in series [5] (listed as tetradecyl pyrrolidone), 33-34 °C. For the same compound, the “10% PRODUCT SOLUBILITY” value in [6] (Acetone), in [6] (Ethanol), in series [6] (Heptane), in series [6] (Paraffin Oil), in series [6] (Perchloroethylene) and in [6] (Stoddard Solvent) was “S” each time. Besides, the “10% PRODUCT SOLUBILITY” value is “S*” in [6] (Water) and “S” in series [6] (Xylene). In addition, the solubility in water result in series [6] is reported as “completely soluble”. Besides, the “Heat of Vaporizn.” value in [9] is recorded as 19.7 k cal/mole. Besides, the “Solubility Parameter (δ)” value in series [9] stood at 7.8. Moreover, the am in [7] is on record as 53.6 (Å)^2. Besides, in [7], the CMC was 57 µM. Moreover, the pC-20 in series [7] was 6.25. In addition, the Γm in series [7] (surface concentration at the liquid-air interface) was 3.1 10^-10 mol/cm².

In turn, `CCCCCCCCCCCCN1CCCC1=O` [N-dodecyl-2-pyrrolidone] displayed a pH in series [2] of 7.3. For the same compound, the VISCOSITY in series [3] (setting [15]) worked out at 6.5 CPS; in [3] (setting [16]), 7.5 CPS; in [3] (setting [17]), 12.5 CPS; in series [3] (setting [18]), 16.0 CPS; in series [3] (setting [19]), 20.0 CPS; in series [3] (setting [10]), 17.0 CPS. Moreover, the VISCOSITY in series [3] (setting [11]) came out at 17 cps. Also, the “Surface Tension of Aqueous Solutions” value in [4] (setting [20]) is reported as 55.4 dynes/cm; in series [4] (setting [12]), 29.9 dynes/cm; in series [4] (setting [13]), 27.6 dynes/cm; in series [4] (setting [14]) it was 26.7 dynes/cm. Also, the entries for the “Cloud Point” value in series [5], in series [5] (listed as dodecyl) and in series [5] (listed as dodecyl pyrrolidone) were 15-19 °C, 15-19 °C and 31-32 °C, respectively. For the same compound, the “10% PRODUCT SOLUBILITY” value in [6] (Acetone) is on record as “S”; in series [6] (Ethanol) it was “S”; in series [6] (Heptane), “S”; in series [6] (Paraffin Oil), “PS”; in series [6] (Perchloroethylene), “S”; in series [6] (Stoddard Solvent) it was “PS”. Also, the “10% PRODUCT SOLUBILITY” value is listed as “S*” in series [6] (Water) and “S” in [6] (Xylene). In addition, the solubility in water result in series [6] is “completely soluble”. In addition, the am in series [7] was 36.9 (Å)^2. Moreover, the CMC in series [7] was 47 µM. The pC-20 in series [7] is listed as 5.27.

As to `CCCCCCCCCCCCCCCCN1CCCC1=O` [hexadecyl, N-hexadecyl-2-pyrrolidone], the “Cloud Point” value in series [5] is recorded as “insoluble”.
